Data set [1] has as its target T1, human adenosine A2b receptor (Homo sapiens, UniProt P29275).
T1 construct: expressed in transfected cells; host or cells: CHO cells, co-transfected with the pCRE-LUCI reporter plasmid
T1 sequence (P29275 1-332): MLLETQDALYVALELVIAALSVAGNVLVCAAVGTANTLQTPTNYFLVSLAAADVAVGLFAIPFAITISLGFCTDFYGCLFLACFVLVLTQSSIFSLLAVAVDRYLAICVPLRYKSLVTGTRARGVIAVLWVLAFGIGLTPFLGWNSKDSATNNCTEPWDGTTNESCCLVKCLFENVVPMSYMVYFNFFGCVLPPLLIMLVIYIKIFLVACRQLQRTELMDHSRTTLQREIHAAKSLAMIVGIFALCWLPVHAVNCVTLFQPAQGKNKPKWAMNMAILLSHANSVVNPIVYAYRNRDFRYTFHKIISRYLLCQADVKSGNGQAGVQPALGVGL
The experiment in a line: Adenosine A2b receptor reporter gene assay (luciferase, CHO-A2b cells). It is filed as cell-based. The conditions noted are these: CHO cells transfected with human A2b receptor and pCRE-LUCI; NECA as agonist; KB from shift of the curve at 100 nM or 1 μM antagonist. The procedure: Adenosine A2b Receptor Reporter Gene Assay a) Culturing of Chinese Hamster Ovary (CHO) A2b Cell Line
CHO cells transfected with a Luciferase-expressing reporter plasmid (pCRE-LUCI) and with a plasmid carrying the human adenosine A2b receptor structural gene (pA2bRCV) are routinely cultured in Dulbecco's Modified Eagle Medium (DMEM)—supplemented with 10% v/v fetal calf serum (FCS), 2 mM L-glutamine, 0.4 mg/ml L-proline, 1 nM sodium selenite, 0.5 mg/ml Hygromycin B and 1 mg/ml Geneticin—at 37° C., 5% CO2 and 100% humidity. The cells are left to grow to confluence for 4–5 days. The cells obtained are passaged using trypsin/EDTA and split at a ratio of 1 in 5. […]
b) Preparation of Cells for Assay
Prior to the assay, the CHO-A2b cells are plated onto white 96-well View Plate tissue culture plates (Packard) at a density of 50,000 cells per well in […] of DMEM, and the plates are incubated at 37° C., 5% CO2 and 100% humidity. […]
c) Preparation of Reference and Test Compounds
10 mM solutions of the reference compound, Xanthine Amine Cogener (XAC), and the test compound in dimethyl sulfoxide (DMSO) are prepared. The solutions are further diluted with DMSO to 100 μM, then diluted to 10 μM, and finally to 250 nM or 2.5 μM with Assay Buffer (DMEM Phenol Red-free tissue culture media supplemented with 10 μM Rolipram and 10 U/ml adenosine deaminase (ADA). The resulting solutions (40 μl) are added to the cells in the appropriate wells, the final concentration per well being 100 nM or 1 μM, and the plates are incubated at 37° C., 5% CO2 and 100% humidity. […]
d) Luciferase Reporter Gene Assay
5′-N-ethylcarboxamidoadenosine (NECA), an adenosine A2b agonist, is prepared as a […] solution in DMSO and then diluted to 100 μM with Assay Buffer. This solution is serially diluted in Assay Buffer to give a series of 10 NECA concentrations from 100 to 0.01 μM. 10 μl portions of the resulting NECA solutions are added to the mixtures of CHO-A2b cells and reference or test compound solutions prepared as described above (preincubated for 30 minutes), final concentrations ranging from 10 to 0.0005 μM per well. The cells are incubated at 37° C., 5% CO2 and 100% humidity for 3 hours to induce release of cAMP, which then binds to cAMP binding protein (CBP) and the resulting complex interacts with the reporter plasmid to express Luciferase. 100 μl of Steady-Glo, a Luciferase assay substrate from Promega, is added to all wells to lyse the cells and generate luminescence in proportion to the amount of Lucifrease produced. The plates are left for a minimum of 5 minutes before being read on the luminescence program of a Topcount NXT microplate scintillation counter (ex Packard). Concentration—response curves are plotted from the luminescence data using Activitybase software and KB values for the antagonists under test are calculated from the shifts of the curve at a particular concentration (KB=[antagonist]/(concentration ratio−1)

The next data set addresses T2, adenosine A3 receptor (Homo sapiens, UniProt P0DMS8).
T2 sequence (P0DMS8 1-318): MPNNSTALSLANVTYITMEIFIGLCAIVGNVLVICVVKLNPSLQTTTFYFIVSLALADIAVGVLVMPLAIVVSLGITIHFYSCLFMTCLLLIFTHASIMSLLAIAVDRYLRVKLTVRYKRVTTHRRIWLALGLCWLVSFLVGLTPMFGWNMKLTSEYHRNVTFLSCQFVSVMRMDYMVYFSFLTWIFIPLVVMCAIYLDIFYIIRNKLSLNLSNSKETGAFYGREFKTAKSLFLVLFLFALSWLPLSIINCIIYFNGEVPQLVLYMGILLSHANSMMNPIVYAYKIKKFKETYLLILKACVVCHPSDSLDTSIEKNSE

The mark [2] stands for this setting: read-out: KI value in adenosine A3 receptor assay, assay as described in WO 99/64418.

Read-outs that look alike come from different tables or passages of the source.

Take `COc1ccc(C(=O)Nc2nc(-c3cccc(C#N)c3)c(-n3cncn3)s2)cc1` [Example 12, N-[4-(3-Cyano-phenyl)-5-[1,2,4]triazol-1-yl-thiazol-2-yl]-4-methoxy-benzamide]: the melting point (in general, the temperature of the solid-liquid transition) lay in the range of 292 to 294 °C. In addition, the Kb – broadly, the affinity of an antagonist, worked out from how it opposes an agonist – in data set [1] is 0.031 µM.
Regarding “(3-[5-(2-Methyl-imidazol-1-yl)-2-(pyrazin-2-ylamino)-triazol-4-yl]-benzonitrile) [Example 35]”, in data set [1], the Kb is 0.004 µM. The Ki (as a rule, the dissociation constant of the complex between target and ligand, obtained from inhibition or displacement) on adenosine A3 receptor (setting [2]) turned out to be 0.01 µM.
With `N#Cc1cccc(-c2nc(Nc3cnccn3)sc2-n2cncn2)c1` [Example 27, (3-[2-(Pyrazin-2-ylamino)-5-[1,2,4]triazol-1-yl-thiazol-4-yl]-benzonitrile)], the Kb in data set [1] was 0.01 µM. For the same molecule, at adenosine A3 receptor (setting [2]), the Ki was 0.016 µM.
As to `COCCOc1cncc(Nc2nc(-c3cccc(C#N)c3)c(-n3cncn3)s2)n1` [Example 38], the Kb in data set [1] came to 0.012 µM. The Ki on adenosine A3 receptor is 0.004 µM.
With `Cn1cccc1C(=O)Nc1nc(-c2cccc(C#N)c2)c(-n2cncn2)s1` [Example 36, 1-Methyl-1H-pyrrole-2-carboxylic Acid [4-(3-cyano-phenyl)-5-[1,2,4]triazol-1-yl-thiazol-2-yl]-amide], the melting point fell in the range of 245 to 247 °C. Moreover, the Kb in data set [1] was found to be 0.017 µM.
For `Cc1cccc(Nc2nc(-c3cccc(C#N)c3)c(-n3cncn3)s2)n1` [Example 15, 3-[2-(6-Methyl-pyridin-2-ylamino)-5-[1,2,4]triazol-1-yl-thiazol-4-yl]-benzonitrile], the Kb in data set [1] was 0.02 µM.
